The source of these data is paper PMC11468809, “An Outer Membrane Vesicle‐Based Permeation Assay (OMPA) for Assessing Bacterial Bioavailability” (Advanced Healthcare Materials, 2021).

Data set [1] in a line: Membrane permeabilization experiment on OMV-derived membrane. In kind it is in vitro ADME, Escherichia coli. The note with it: for effect of membrane-perturbating agent on the OMV-derived model: permeability of fusidic acid or fluorescein as readout. As to the method:
Experiments were conducted on OMVs of E. coli BL21 DE3 Omp8 as stated above with some modifications. […] After 30 min, solutions were removed and the standard protocol was followed employing 200 × 10^−6 M fusidic acid solution and sampling after 5, 10, 15, 20, 25, 30, 45, and 60 min. The quantification was done via LC–MS/MS.
(§1) Afterward 240 µL of 10 × 10^−6 M fluorescein solution in PBS (pH 7.4) was added and 40 µL samples were drawn after 5, 10, 15, 20, 25, 30, 45, and 60 min and diluted 1 in 5 prior to fluorimetric quantification (λ ex = 485 nm, λ em = 530 nm).

The nature of data set [2]: Permeation across porin-deficient E. coli BL21 DE3 Omp8 OMV-derived membrane model. Conditions: standard permeation assay, 200 × 10^−6 M. As to the method: (§2) 30 µL of the OMV or liposome suspension were given on top of membrane filters of a 96‐well filter plate (MultiScreen 96‐well filter plates with 0.4 µm PCTE membrane). Afterwards, filters were dried at 37°C inside a Memmert UF55 universal oven (fan at 100%). This process was repeated another two times. A six‐fold coating procedure was only followed for SEM‐imaging purposes. For permeation studies, the obtained coatings were covered with 40 µl of 0.5% w/v agarose solution using a direct diplacement pipette. Prior to permeation studies, the bottom of the coated filter was also coated with a thin film of 0.5% w/v agarose using a small brush.
(§3) Coated wells were incubated on the apical and basolateral side for 30 min with PBS (pH 7.4) at 37°C while shaken at 180 rpm. After incubation, 230 µL of pre‐warmed 200 × 10^−6 M antibiotic donor solution (37°C) replaced the PBS in the respective donor wells, while 30 µL were immediately removed and diluted 1:10. The absorbance of these dilutions was measured in a receiver plate using a Tecan Infinite 200 PRO (Tecan Trading AG, Maennedorf, Switzerland) plate reader. (Table S1, Supporting Information) 300 µL of fresh PBS were given into the acceptor wells of the receiver plate followed by absorbance measurements. Donor and acceptor plates were reassembled, incubated, and disassembled after 10, 20, 30, 45, 60, 90, and 120 min to measure the absorbance in the acceptor wells.

Data set [3] in a line: Membrane permeabilization experiment on bacteriomimetic liposome-derived model. In kind it is in vitro ADME. Conditions: fluorescein 10 × 10^−6 M after 30 min incubation with 83.1 × 10^−6 M PMB vs PBS. As to the method: as §1
Data set [4] in a line: Comparison of P app among four vesicle-derived membrane models. Type of data set: in vitro ADME. Conditions: 200 × 10^−6 M; Figure 11. An excerpt: This process was repeated another two times.
The conditions of data set [5]: not told. As to the method:
as §2
Coated wells were incubated on the apical and basolateral side for 30 min with PBS (pH 7.4) at 37°C while shaken at 180 rpm. […] The absorbance of these dilutions was measured in a receiver plate using a Tecan Infinite 200 PRO (Tecan Trading AG, Maennedorf, Switzerland) plate reader. (Table S1, Supporting Information) 300 µL of fresh PBS were given into the acceptor wells of the receiver plate followed by absorbance measurements. Donor and acceptor plates were reassembled, incubated, and disassembled after 10, 20, 30, 45, 60, 90, and 120 min to measure the absorbance in the acceptor wells.

Data set [6] is described as follows: Porin-blocking experiment with spermine on porin-deficient membrane model. Conditions: 15 × 10^−6 M norfloxacin, no spermine.
Description: (§4) Experiments were performed on OMVs of E. coli strains BL21 DE3 and BL21 DE3 Omp8. The procedure followed the standard protocol for permeability studies with some modifications. The membranes were incubated on both sides for 30 min either with 140 × 10^−3 M spermine solution in PBS (pH7.4) or blank PBS. […] Samples of 40 µL were taken after 5, 10, 15, 20, 25, and 30 min and analyzed by LC–MS/MS.
(§5) An Accela UHPLC System‐Coupled TSQ Quantum Access Max tandem quadrupole mass spectrometer (both from Thermo Fisher Scientific, Waltham, MA, USA) was employed. The entire system was operated via Xcalibur 219 software (Thermo Fisher Scientific, Waltham, MA, USA). The detection of the compounds in the MS happened after heated electrospray ionization (H‐ESI) in positive ion mode. The chromatographic analysis was performed with a binary solvent mixture using optionally acetonitrile + 0.1% formic acid (A), MilliQ‐water + 0.1% formic acid (B), methanol + 0.1% formic acid (C), or ammonium formate buffer (10 × 10^−3 M, pH 3, D). […]
(§6) Raw data obtained from the respective analytical readouts of transport studies were converted to their corresponding concentration via external calibration. […]
(§7) The apparent permeability coefficient (P app) was calculated according to the following formula: (2) Pappcm∗s^−1=J/c0 where c 0 is the initial donor concentration (µg cm^− ^3) and J (µg cm^− ^2*s) the compound flux.
The nature of data set [7]: Porin-blocking experiment with spermine on porin-containing membrane model. Conditions: 15 × 10^−6 M norfloxacin, 140 × 10^−3 M spermine; Figure 10B.
Description: as §4, §5, §6, §7
The nature of data set [8]: Impact of agarose gel and vesicle coating on compound permeation. The note with it: P app; 0.5% w/v agarose gel; Figure 7. As to the method: as §2, §3

As to `CC(=O)O[C@H]1C[C@@]2(C)[C@@H](C[C@@H](O)[C@H]3[C@@]4(C)CC[C@@H](O)[C@@H](C)[C@@H]4CC[C@@]32C)/C1=C(\CCC=C(C)C)C(=O)O` [Fusidic acid], in data set [1] (fusidic acid 200 × 10^−6 M after 30 min incubation with 103.8 × 10^−6 M PMBN vs PBS), the “change in permeability after membrane-perturbating agent” value is given as “none of the membrane‐perturbating agents caused significant changes”. On to `O=C(N[C@H](CO)[C@H](O)c1ccc([N+](=O)[O-])cc1)C(Cl)Cl` [chloramphenicol], for which the “permeability compared with the porin-containing BL21 DE3 OMV-derived model” value in data set [2] is recorded as “did not lead to a significant drop of permeation”. For `O=C1OC2(c3ccc(O)cc3Oc3cc(O)ccc32)c2ccccc21` [fluorescein], in data set [1] (fluorescein 10 × 10^−6 M after 30 min incubation with 83.1 × 10^−6 M PMB vs PBS), the “change in permeability after membrane-perturbating agent” value is recorded as “none of the membrane‐perturbating agents caused significant changes”. In data set [3], the “permeation after treatment with PMB” value is listed as “permeated significantly slower”. Consider `CCn1cc(C(=O)O)c(=O)c2ccc(C)nc21` [nalidixic acid], for which the “difference in permeability throughout the OMV- and the bacteriomimetic liposome-based model” value in data set [4] is “no significant difference”. In addition, the “permeability across the eukaryotic membrane model compared with the other models” value in data set [5] is listed as “increased”. Take `CCn1cc(C(=O)O)c(=O)c2cc(F)c(N3CCNCC3)cc21` [norfloxacin]: the “permeability compared with the porin-containing model” value in data set [6] is reported as “significantly decreased permeability”. Further, the “permeability coefficients in presence vs absence of spermine” value in data set [7] is “significantly different”. The “permeability compared with the porin-containing BL21 DE3 OMV-derived model” value in data set [2] is reported as “lower”. For the molecule `CO[C@@H]1[C@@H](OC(N)=O)[C@@H](O)[C@H](Oc2ccc3c(O)c(NC(=O)c4ccc(O)c(CC=C(C)C)c4)c(=O)oc3c2C)OC1(C)C` [novobiocin], the “permeability with the vesicle coating compared to pure agarose gel coating” value in data set [8] is recorded as “significantly lower”. For the molecule `CO[C@H]1/C=C/O[C@@]2(C)Oc3c(C)c(O)c4c(O)c(c(/C=N/N5CCN(C)CC5)c(O)c4c3C2=O)NC(=O)/C(C)=C\C=C\[C@H](C)[C@H](O)[C@@H](C)[C@@H](O)[C@@H](C)[C@H](OC(C)=O)[C@@H]1C` [rifampicin], the “difference in permeability throughout the OMV- and the bacteriomimetic liposome-based model” value in data set [4] is recorded as “no significant difference”. The “permeability across the eukaryotic membrane model compared with the other models” value in data set [5] is “comparable permeability”. In addition, the “permeability with the vesicle coating compared to pure agarose gel coating” value in data set [8] is on record as “significantly lower”. Consider `CN(C)[C@@H]1C(O)=C(C(N)=O)C(=O)[C@@]2(O)C(O)=C3C(=O)c4c(O)cccc4[C@@](C)(O)[C@H]3C[C@@H]12` [tetracycline], for which the “permeability with the vesicle coating compared to pure agarose gel coating” value in data set [8] was “significantly lower”. The “permeability compared with the porin-containing BL21 DE3 OMV-derived model” value in data set [2] is on record as “did not lead to a significant drop of permeation”.

Take `CN[C@H](CC(C)C)C(=O)N[C@H]1C(=O)N[C@@H](CC(N)=O)C(=O)N[C@H]2C(=O)N[C@H]3C(=O)N[C@H](C(=O)N[C@H](C(=O)O)c4cc(O)cc(O)c4-c4cc3ccc4O)[C@H](O)c3ccc(c(Cl)c3)Oc3cc2cc(c3O[C@@H]2O[C@H](CO)[C@@H](O)[C@H](O)[C@H]2O[C@H]2C[C@](C)(N)[C@H](O)[C@H](C)O2)Oc2ccc(cc2Cl)[C@H]1O` [vancomycin]: the “trend of permeability the fewer outer membrane features the model has” value in data set [4] was “gradual decrease of permeability”. For PMB nonapeptide [PMBN], in data set [1], the “effect of membrane-perturbating agent on the OMV-derived model” value is listed as “lack of effect”. For the molecule Polymyxin B [PMB], in data set [1], the “effect of membrane-perturbating agent on the OMV-derived model” value is on record as “lack of effect”.
